The values that follow come from US20080050720A1 (priority 2003, published 2008).

Experiment [1] deals with lawn of the YMR325W reporter strain (S. Cerevisiae strain ABY12). The experiment in a line: Solid plate halo assay, growth of reporter strain lawn. The experiment is classed as cell-based. The conditions noted are these: paper disc; 20 ul of 50 ug/ml Miconazole or 20 ul of 1500 ug/ml Lovastatin; 30° C. The protocol: (§1) The assay was designed to mimic assays of natural product producing strains in the presence of ABY12 reporter carrying strains.
(§2) 1. A YMR325W reporter was transformed into wild-type S. Cerevisiae strain ABY12 and grown on a solid Casamino Acids media plate.
(§3) 2. A culture from the solid media plate was used to inoculate a 50 ml liquid culture in Casamino Acids media. The liquid culture was grown overnight at 30° C. to a final OD600=8, and then diluted in Casamino Acids media to an OD600=1, or about 1×10^7 cells per milliliter. Five-hundred microliters of cell culture (about 5×10^6 cells) was spread evenly over the surface of each of two 100 mm solid agar-Casamino-acids-media plates to form a lawn of the YMR325W reporter strain on each plate.
3. Two 6 mm diameter blank paper discs (Becton Dickinson #231039), evenly spaced apart, were placed on top of the agar surface of each plate. On one plate 20 ul of 50 ug/ml of the sterol biosynthesis inhibitor Miconazole was spotted onto one of the two paper discs and 20 ul of 10% DMSO was spotted on the other paper disc as a control. On the other plate 20 ul of 1500 ug/ml Lovastatin was spotted onto one of the two paper discs and 20 ul of 10% DMSO was spotted on the other paper disc as a control. […]
(§4) 4. After a 72 hour incubation the assay plates were imaged in a Molecular Dynamics Fluorimager SI to measure the fluorescence from the GFP reporters.

Experiment [2] relates to YMR325W reporter. The experiment in a line: Solid plate halo assay, fluorescence from the GFP reporter. The experiment is classed as cell-based, S. cerevisiae. The conditions noted are these: for induction of YMR325W reporter (zone of high fluorescence at the edge of halo): paper disc, 20 ul of 50 ug/ml Miconazole or 20 ul of 1500 ug/ml Lovastatin, 30° C. How it is done: as §1, §2, §3
3. Two 6 mm diameter blank paper discs (Becton Dickinson #231039), evenly spaced apart, were placed on top of the agar surface of each plate. On one plate 20 ul of 50 ug/ml of the sterol biosynthesis inhibitor Miconazole was spotted onto one of the two paper discs and 20 ul of 10% DMSO was spotted on the other paper disc as a control. On the other plate 20 ul of 1500 ug/ml Lovastatin was spotted onto one of the two paper discs and 20 ul of 10% DMSO was spotted on the other paper disc as a control. The plates were incubated at 30° C. overnight.
as §4

Experiment [3] relates to YMR325W gene reporter. The experiment in a line: 96-well liquid high-throughput like assay with YMR325W-GFP reporter strain. The experiment is classed as cell-based, S. cerevisiae. The conditions noted are these: serial 1 to 2 dilutions; initial Lovastatin 30 ug/ml, Miconazole 25 ug/ml, Fenpropimorph 50 ug/ml, Tunicamycin 25 ug/ml; 30° C., about 24 hours. The protocol: 1. A YMR325W gene reporter was transformed into wild-type S. Cerevisiae strain ABY12 and grown on solid Casamino Acids media plates.
2. A culture from the solid media plate was used to inoculate a 50 ml liquid culture in Casamino Acids media. The liquid culture was grown overnight at 30° C. to an OD600=8, and then was diluted in Casamino Acids media to an OD600=1.
3. Drug-like agents Lovastatin, Miconazole, and Fenpropimorph, sterol biosynthesis inhibitors that target different molecular steps in the sterol biosynthesis pathway, and UDP-N-acetyl-glucosamine-1-P transferase (GPT) inhibitor Tunicamycin, a negative control, were used in the assay. Each of the four drugs was added to individual wells (one drug per well) in the second column of a 96-well assay plate and serially diluted (1 to 2) into Casamino Acids media plus 2% DMSO in columns 3-12. The initial concentrations of the drugs were as follows: Lovastatin: 30 ug/ml, Miconazole: 25 ug/ml, Fenpropimorph: 50 ug/ml, and Tunicamycin: 25 ug/ml. The first column of the plate was used as a “no drug” control, containing only Casamino Acids media plus 2% DMSO. Each well contained a final volume of 100 ul of media and/or media plus drug.
4. […]
5. After the 24 hour incubation the 96-well assay plate was imaged in a Molecular Dynamics Fluorimager SI to measure the fluorescence from the YMR325W-GFP reporter.

With `Clc1ccc(COC(Cn2ccnc2)c2ccc(Cl)cc2Cl)c(Cl)c1` (stereo not drawn) [Miconazole], in experiment [1], the “growth inhibition of the lawn (halo of no growth)” value is “inhibited the growth”. For the same compound, in experiment [2], the “induction of YMR325W reporter (zone of high fluorescence at the edge of halo)” value is given as “significantly induced”.

As for Tunicamycin, in experiment [3], the “fluorescence from the YMR325W-GFP reporter” value is on record as “No increase in fluorescence”.

As to `CC[C@H](C)C(=O)O[C@H]1C[C@@H](C)C=C2C=C[C@H](C)[C@H](CC[C@@H]3C[C@@H](O)CC(=O)O3)[C@H]21` [Lovastatin], the “growth inhibition of the lawn (halo of no growth)” value in experiment [1] is “inhibited the growth”. In experiment [2] (20 ul of 1500 ug/ml Lovastatin versus 20 ul of 50 ug/ml Miconazole), the “size of zone of fluorescence, Lovastatin compared with Miconazole” value was “much larger zone of fluorescence”. Besides, in experiment [2], the “induction of YMR325W reporter (zone of high fluorescence at the edge of halo)” value is “significantly induced”.
